Laboratory results taken from publication PMC2217334 (The Journal of General Physiology, 2003).

Biological target: human cardiac Na+ channel alpha subunit (SCN5A, hH1) (Homo sapiens, UniProt Q14524)
Experiment: whole-cell patch clamp, use-dependent block at […] external
Assay type: cell-based
Conditions: read-out: % use-dependent block at 10 μM

Chain of human cardiac Na+ channel alpha subunit (SCN5A, hH1) (Q14524 whole entry): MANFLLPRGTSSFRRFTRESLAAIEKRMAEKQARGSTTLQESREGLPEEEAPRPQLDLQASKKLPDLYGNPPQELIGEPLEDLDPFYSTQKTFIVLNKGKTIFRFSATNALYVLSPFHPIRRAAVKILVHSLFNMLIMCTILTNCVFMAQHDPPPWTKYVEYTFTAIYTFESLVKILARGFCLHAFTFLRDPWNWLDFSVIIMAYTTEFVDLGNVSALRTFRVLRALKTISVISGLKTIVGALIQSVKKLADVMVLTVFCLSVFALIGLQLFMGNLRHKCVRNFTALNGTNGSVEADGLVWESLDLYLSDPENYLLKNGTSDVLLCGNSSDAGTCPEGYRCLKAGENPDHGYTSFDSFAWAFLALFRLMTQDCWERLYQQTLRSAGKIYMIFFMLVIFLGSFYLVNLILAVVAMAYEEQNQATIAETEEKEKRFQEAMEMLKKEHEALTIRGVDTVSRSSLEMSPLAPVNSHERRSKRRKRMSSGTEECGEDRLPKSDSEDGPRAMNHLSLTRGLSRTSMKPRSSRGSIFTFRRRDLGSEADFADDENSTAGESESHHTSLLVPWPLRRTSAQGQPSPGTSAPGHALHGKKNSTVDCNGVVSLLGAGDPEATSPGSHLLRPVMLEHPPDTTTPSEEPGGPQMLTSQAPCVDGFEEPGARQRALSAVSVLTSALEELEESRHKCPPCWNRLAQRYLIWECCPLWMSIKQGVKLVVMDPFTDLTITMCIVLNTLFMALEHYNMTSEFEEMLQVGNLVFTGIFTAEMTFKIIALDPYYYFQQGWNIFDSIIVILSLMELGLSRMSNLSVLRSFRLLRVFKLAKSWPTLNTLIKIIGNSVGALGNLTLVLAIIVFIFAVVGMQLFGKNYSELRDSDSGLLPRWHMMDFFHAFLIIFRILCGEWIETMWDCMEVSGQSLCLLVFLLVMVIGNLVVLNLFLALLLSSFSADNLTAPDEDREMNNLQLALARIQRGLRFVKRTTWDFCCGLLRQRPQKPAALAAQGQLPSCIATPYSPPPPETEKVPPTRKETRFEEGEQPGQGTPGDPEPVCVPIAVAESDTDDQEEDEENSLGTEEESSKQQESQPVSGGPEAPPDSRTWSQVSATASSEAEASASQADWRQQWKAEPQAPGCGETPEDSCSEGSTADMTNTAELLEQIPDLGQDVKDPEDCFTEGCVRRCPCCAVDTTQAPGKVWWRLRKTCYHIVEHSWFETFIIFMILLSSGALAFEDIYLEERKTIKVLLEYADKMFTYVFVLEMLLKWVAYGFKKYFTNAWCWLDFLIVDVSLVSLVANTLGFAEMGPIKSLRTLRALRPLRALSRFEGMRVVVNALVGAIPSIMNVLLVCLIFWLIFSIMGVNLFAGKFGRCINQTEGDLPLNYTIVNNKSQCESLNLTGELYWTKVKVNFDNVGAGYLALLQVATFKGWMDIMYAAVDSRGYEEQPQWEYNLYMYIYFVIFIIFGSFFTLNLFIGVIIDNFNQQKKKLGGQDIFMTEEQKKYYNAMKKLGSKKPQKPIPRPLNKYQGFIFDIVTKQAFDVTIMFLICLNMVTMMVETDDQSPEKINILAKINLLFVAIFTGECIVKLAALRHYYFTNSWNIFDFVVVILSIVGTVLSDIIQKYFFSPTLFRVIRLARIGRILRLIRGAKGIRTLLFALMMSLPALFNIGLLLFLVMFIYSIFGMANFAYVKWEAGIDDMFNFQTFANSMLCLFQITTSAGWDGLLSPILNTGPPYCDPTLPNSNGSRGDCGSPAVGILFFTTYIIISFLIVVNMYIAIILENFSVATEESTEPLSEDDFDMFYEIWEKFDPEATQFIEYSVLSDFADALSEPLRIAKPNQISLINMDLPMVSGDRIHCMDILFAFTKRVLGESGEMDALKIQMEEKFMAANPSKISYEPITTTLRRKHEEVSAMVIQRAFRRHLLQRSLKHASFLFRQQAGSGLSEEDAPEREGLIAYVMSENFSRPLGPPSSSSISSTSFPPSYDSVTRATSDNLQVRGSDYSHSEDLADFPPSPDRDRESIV
Chain of human cardiac Na+ channel alpha subunit (SCN5A, hH1) (Q07699 19-218 partner): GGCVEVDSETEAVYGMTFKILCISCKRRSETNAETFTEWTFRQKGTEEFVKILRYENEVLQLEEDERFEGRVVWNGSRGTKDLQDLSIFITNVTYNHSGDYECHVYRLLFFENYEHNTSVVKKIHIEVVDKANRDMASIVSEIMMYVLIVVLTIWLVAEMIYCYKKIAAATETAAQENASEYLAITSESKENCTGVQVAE

SMILES: O=C(NCC1CCCCN1)c1cc(OCC(F)(F)F)ccc1OCC(F)(F)F (stereo not shown) [flecainide]
- inhibition at 10 µM: 67.3 ± 3.5%
